Source: ChEMBL document CHEMBL1773045, “Conjugate (MTC-220) of muramyl dipeptide analogue and paclitaxel prevents both tumor growth and metastasis in mice” (J Med Chem, 2011)
Calls of active or inactive are those of the source. The calls are words filed in the database; no cut-off is given here.

Columns and labels:
[1] = tested on: Lewis lung carcinoma cell line; assay: Antitumor activity against mouse LLC cells xenografted in C57BL/6 mouse assessed as tumor growth inhibition at 6 mg/kg, ip qd for 15 days relative to control; format: functional; conditions: 360 h, route intraperitoneal, read-out: GI
Mus musculus [2] = assay: Toxicity in mouse LLC cells xenografted C57BL/6 mouse assessed as decrease in body weight at 6 mg/kg, ip qd for 15 days; format: organism-based; design: dose 6 mg/kg, route intraperitoneal; conditions: in vivo, 360 h
Mus musculus [3] = assay: Antimetastatic activity against mouse 4T1 cells xenografted in BALB/c mouse assessed as reduction of myeloid derived suppressor cells accumulation in bone marrow at 3 mg/kg, ip qd for 23 days by flow cytometry analysis relative to control; format: functional; design: scale not given: the % may be the effect or the level left; conditions: route intraperitoneal
Mus musculus [4] = assay: Antimetastatic activity against mouse 4T1 cells xenografted in BALB/c mouse assessed as reduction of myeloid derived suppressor cells accumulation in spleen at 3 mg/kg, ip qd for 23 days by flow cytometry analysis relative to control; format: functional; design: scale not given: the % may be the effect or the level left; conditions: route intraperitoneal
4T1 [5] = assay: Antimetastatic activity against mouse 4T1 cells xenografted in […] mouse assessed as inhibition of lung metastasis at 3 mg/kg, ip qd for 28 days; format: functional, organism-based; design: dose 3 mg/kg
Mus musculus [6] = assay: Toxicity in mouse 4T1 cells xenografted […] mouse assessed as decrease in body weight at 3 mg/kg, ip qd for 28 days; format: organism-based; design: dose 3 mg/kg, route intraperitoneal; conditions: in vivo, 672 h
4T1 [7] = assay: Antitumor activity against mouse 4T1 cells xenografted in […] mouse assessed as tumor growth inhibition at 3 mg/kg, ip qd for 28 days relative to control; format: functional; conditions: 4T1, ip, 672 h, route intraperitoneal, read-out: GI
[8] = tested on: Lewis lung carcinoma cell line; assay: Antimetastatic activity against mouse LLC cells xenografted in C57BL/6 mouse assessed as inhibition of lung metastasis at 6 mg/kg, ip qd for 15 days relative to control; format: functional, organism-based; design: dose 6 mg/kg

## CC(=O)O[C@H]1C(=O)[C@@]2(C)[C@H]([C@H](OC(=O)c3ccccc3)[C@]3(O)C[C@H](OC(=O)[C@H](O)[C@@H](NC(=O)c4ccccc4)c4ccccc4)C(C)=C1C3(C)C)[C@]1(OC(C)=O)CO[C@@H]1C[C@@H]2O [PACLITAXEL]
[1]
  inhibition in vivo at 6 mg/kg: 26.2%
Mus musculus [2]
  Activity: Non-toxic
Mus musculus [3]
  Activity: 79.1%
Mus musculus [4]
  Activity: 46.7%
4T1 [5]
  growth inhibition (GI): inactive
Mus musculus [6]
  Activity: Non-toxic
4T1 [7]
  inhibition in vivo at 3 mg/kg: 30.5%
[8]
  growth inhibition (GI): inactive
